According to publication PMC6005341, “Identification of “sarsasapogenin-aglyconed” timosaponins as novel Aβ-lowering modulators of amyloid precursor protein processing” (Chemical Science, 2016):

Tests used:
[1] = tested on: Aβ42 production in N2A-APPswe cells; experiment: Aβ42 in conditioned medium of N2A-APPswe cells by ELISA, 18 h treatment; type: cell-based; details: for decrease in Aβ42 / Aβ42-lowering effect (in words): N2A-APPswe cells; for decrease in Aβ42: 18 h; for IC50: N2a-APPswe, read-out: IC50 in lowering Aβ42 production, N2A-APPswe cells, mean ± standard deviation, n ≥ 3
Source text: Sigma-Aldrich Chemical Co. unless otherwise specified. SSG (1) was purchased from Wako Pure Chemical Industries, Ltd. Diosgenin (6), Dioscin (9), Polyphyllin D (10), Timosaponin BI (22) and Timosaponin BII (23) were purchased from Chengdu Must Bio-Technology Co.
Ltd. Yamogenin (7) was bought from Ambinter c/o Greenpharma while Smilagenin (24) was bought from Steraloids Inc. Substances dissolved in DMSO as stock solutions. Cell culture medium constituents were purchased from Life Technologies, Inc.
Cell culture: Neuro-2A cells expressing Swedish mutants of APP (N2A-APPswe provided by Prof. Yifan Han, The Hong Kong Polytechnic University)1 was cultured in minimal essential medium with 2 mM glutamine, 2 mM pyruvate and 10% fetal bovine serum. […]
(§1) Aβ ELISA: Aβ concentrations in conditioned medium were assayed using ELISA kits for […]

β-secretase = target: T1, β-secretase (Mus musculus, UniProt P56818); experiment: β-Secretase assay in N2A-APPswe cell protein extracts; type: biochemical
T1 construct: endogenous in cells; host or cells: N2A-APPswe (Neuro-2A stably expressing APP Swedish mutant)
T1 sequence (P56818 46-501): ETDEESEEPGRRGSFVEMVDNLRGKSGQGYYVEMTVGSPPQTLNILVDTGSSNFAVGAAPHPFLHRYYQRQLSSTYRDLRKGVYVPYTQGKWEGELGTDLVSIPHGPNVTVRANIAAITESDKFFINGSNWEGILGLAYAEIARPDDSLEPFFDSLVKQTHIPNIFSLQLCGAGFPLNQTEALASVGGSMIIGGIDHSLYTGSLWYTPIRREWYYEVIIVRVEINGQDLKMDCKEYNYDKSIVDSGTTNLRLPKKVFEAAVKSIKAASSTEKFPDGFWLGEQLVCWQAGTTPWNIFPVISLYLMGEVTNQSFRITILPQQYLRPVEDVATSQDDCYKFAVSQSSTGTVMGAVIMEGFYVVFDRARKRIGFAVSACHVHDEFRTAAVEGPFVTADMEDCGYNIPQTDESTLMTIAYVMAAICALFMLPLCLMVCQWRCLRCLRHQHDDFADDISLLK
Experimental: β-Secretase assays: Confluent N2A-APPswe cells were harvested and homogenized with 50
mM MES, pH5.5. Protein extracts (10 µg) were incubated with testing compounds or vehicle
for 1 h at room temperature. […]

[2] = Plasma and brain concentrations by LC-MS/MS; type: in vivo, mice; details: for Plasma Precursor: mice n = 6, three repeated oral doses 100 mg/kg in two days
Experimental: Animal experiments: Male C57BL/6N mice were housed in environmentally controlled room (temperature: 25 ± 2 °C, humidity: 50 ± 5%, 12-h light-dark cycle) in Laboratory Animal Unit, The University of Hong Kong and were freely access to food and water. TAIII, TAI SSG and compound 34 were dissolved in 5% Tween 80 and given to the mice by oral gavage at three repeated doses of 100 mg/kg in 48 hours. Mice were administrated with 5% Tween 80 (control group), TAIII, TAI SSG and 34. The experimental procedures were performed with the approval of Committee of Use of Live Animal for Teaching and Research of The University of Hong Kong. Blood (about 600-800 µL) was collected by cardiac puncture and added with 1/10 volume of Na2EDTA (20 mg/mL) to prevent coagulation. After centrifugation at 3000 g for 15 min at 4 °C, plasma was transferred to a centrifuge tube. The brain was dissected into two hemispheres on ice, weighed and frozen in liquid nitrogen immediately. The left brain was homogenized with 1 mL of buffer containing 5 M guanidine HCl, 50 mM Tris HCl, pH 8.0, with protease inhibitor cocktail and AEBSF using a Polytron and the homogenates were allowed to stand at room temperature for 3h. Both plasma and brain samples were stored at -80 °C until they were analyzed. […]
B. Determination of timosaponin levels in mice plasma and brain by ultra-high pressure liquid chromatography tandem mass spectrometry
The UPLC-ESI-QTOF consists of a Waters Q-TOF PremierTM mass spectrometer (Micromass MS Technologies, Manchester, UK) operated in positive ion mode and a Waters ACQUITY TM UPLC system. The mass spectrometer conditions were optimized as follows: source […]
temperature, 120 °C; desolvation temperature, 500 °C; nebulization gas flow rate, 1000 L/h; cone gas flow rate, 20 L/h; capillary voltage, 2.5 kV; sampling cone voltage, 28V. The data were collected into two separate data channels with the instrument spending 0.5 s on data acquisition for each channel and a 0.1 s inter-channel delay. The mass spectrometer was calibrated by using the solution of sodium formate (0.5 mM) and the TOF scan range was from 100 to 1000 Da. In order to improve mass measurement accuracy a lock mass compound (50 pg µL−1 solution of leucine encephalin; m/z 556.2771) was continuously infused at a 0.5 mL min-1 using the built-in syringe pump of the instrument.
Sample was loaded into a Waters ACQUITY TM BEH C18 column (100 × 2.1 mm i.d., 1.7 µM) connected to a Waters ACQUITY TM BEH C18 guard column (5 × 2.1 mm i.d., 1.7 µM). The gradient elution system consisted of 0.1% formic acid in water (A) and 0.1% formic acid in acetonitrile (B). Separation was achieved by using: 30%-55% B from 0 to 3 min; 55-100% B from 3 to 6 min; 100% B from 6 to 12 min and returned to initial conditions and equilibrated for 3 minutes. The flow rate was 0.3 mL/min and the injection volume was 5 µL.
Standard preparation and sample preparation
Stock solution (10 µM ) of each analyte was prepared by dissolving in methanol. They were subject to serial dilution to give calibration curves of SSG 1 (plasma: y = 8.7485× - 0.0676; […]
each concentration of each analyte was transferred to a centrifuge tube and evaporated to dryness by a concentrator. Dioscin (20 µL , 10 µM) was added as an internal standard followed by methanol (130 µL) and control plasma (50 µL). The mixture was vortexed for 5 s and centrifuged (15000 × g) for 15 min. The supernatant was collected and evaporated to dryness by a concentrator. Methanol (100 µL) was added and then vortexed again for 10 s and centrifuged (15000 × g) for 20 min. The supernatant (5 µL) was subject to LC-MS/MS analysis. Analyte-treated plasma, control brain and analyte-treated brain were prepared in a […]
The acquisition and processing of data were performed by Masslynx (version 4.1) software.
Mass window of ±10 mDa and mass resolution of 9000 were set for both molecular ions and product ions. MS full scan was applied to acquire high abundant molecular ions [M+H]+ with […]

[3] = tested on: Aβ40 and Aβ38 in N2A-APPswe cells; experiment: Aβ40 and Aβ38 in conditioned medium of N2A-APPswe cells by ELISA; type: cell-based; details: compared with Aβ42
Experimental: as §1

[4] = any metabolite, mice n = 6, three oral doses 100 mg/kg in two days
[5] = mice n = 6, three oral doses 100 mg/kg in two days

Compound | decrease in Aβ42 ([1]; 50 μM) [%] | decrease in Aβ42 ([1]; 100 μM) [%] | IC50 [1] [µM] | β-secretase activities in the cell extracts (β-secretase) | Brain Metabolite [2, 4] | Plasma Metabolite [2, 4] | Brain Precursor [2, 5] | Plasma Precursor [2] [µM] | Aβ42-lowering effect (in words) [1] | effect on Aβ40 and Aβ38 [3]
C[C@H]1CC[C@@]2(OC1)O[C@H]1C[C@H]3[C@@H]4CC[C@@H]5C[C@@H](O)CC[C@]5(C)[C@H]4CC[C@]3(C)[C@H]1[C@@H]2C [SSG (1), sarsasapogenin] | 55 | 40 | 53 ± 9 | no change | Not detected | Not detected | 1.042 ± 0.418 µM | 0.118 ± 0.062 |  | 
C[C@H]1CC[C@@]2(OC1)O[C@H]1C[C@H]3[C@@H]4CC[C@@H]5C[C@@H](O[C@@H]6O[C@H](CO)[C@H](O)[C@H](O)[C@H]6O[C@@H]6O[C@H](CO)[C@@H](O)[C@H](O)[C@H]6O)CC[C@]5(C)[C@H]4CC[C@]3(C)[C@H]1[C@@H]2C [TAIII (2), timosaponin A III] |  |  | ~2.3 | did not affect |  |  | Not detected | 0.050 ± 0.058 | effectively lowered | much smaller effect
C[C@H]1CC[C@@]2(OC1)O[C@H]1C[C@H]3[C@@H]4CC[C@@H]5C[C@@H](O[C@@H]6O[C@H](CO)[C@H](O)[C@H](O)[C@H]6O)CC[C@]5(C)[C@H]4CC[C@]3(C)[C@H]1[C@@H]2C [TAI (3), timosaponin A I] |  |  | ~6.1 |  |  |  | 1.174 ± 0.401 µM | 3.361 ± 0.925 | effectively lowered | much smaller effect
